# Measurements reported in patent US20050267016A1, “CD-10 activated prodrug compounds” (priority 2001, published 2005).
# pIC50: −log10 of the molar value. Read-outs that look alike come from different tables or passages of the source. Marks after values point to notes of the source that are not given here.
# Tests used:
# Namalwa cells (CD10pos) = assay: cells; assay type: cell-based; conditions: for pIC50: 24 hours; for Ratio Ball-1:Namalwa: ratio of IC50
# Experimental: (§1) Suspension cells, BALL-1, Ramos and Namalwa cells were cultured in RPMI media containing 10% heat inactivated fetal calf serum (FCS). On the day of the study, the cells were collected, washed and resuspended at a concentration of 0.5×10^6 cells/ml in RPMI containing 10% FCS. 100 µl of cell suspension was added to 96 well plates. […] Finally 10 μl of a 100 μCi/ml ^3H-thymidine was added per well and the plates were incubated for 24 hours. The plates were harvested using a 96 well Harvester (Packard Instruments) and counted on a Packard Top Count counter. Four parameter logistic curves were fitted to the ^3H-thymidine incorporation as a function of drug molarity using Prism software to determine IC50 values.
# BALL-1 cells (CD10neg) = assay: cells
# Experimental: as §1
# (§2) The effect of two known inhibitors of CD10 on prodrug activity in Ramos, LNCaP and Ball-1 cells was evaluated. The IC50 of Suc-βAla-Ile-Ala-Leu-Dox was determined in the presence of increasing concentration of the CD10 inhibitors, phosphoramidon and thiorphan.
# Ramos cells (CD10pos) = assay: cells; conditions: for Ratio Ball-1:Ramos: ratio of IC50
# Experimental: as §1, §2
# [1] = Pharmacokinetic/metabolism study, single IV bolus; conditions: for Major Plasma Metabolite: mice; for Plasma AUC0-6 hr of AL-Dox or AG-Dox* / Plasma AUC0-6 hr of L-Dox or G-Dox*: single IV bolus approximately 100 μmol/Kg; for Plasma AUC0-6 hr of Dox: single IV bolus approximately 100 μmol/Kg of prodrug
# Experimental: Plasma was obtained from three individual animals in each group at 5 minutes, 1, 2, 4, or 6 hr.
# Porcine Kidney CD10 = assay: Hydrolysis by purified CD10; assay type: biochemical; conditions: for % hydrolysis/10 hr: 12.5 μg/mL, 37° C., pH 7.4, product Leu-doxorubicin; for Fraction hydrolyzed relative to standard: standard Suc-βAla-Leu-Ala-Leu-Dox
# Experimental: Reaction products were analyzed by HPLC with fluorescence detection. Rates were essentially linear over the incubation period. The observed product was Leu-doxorubicin.
# LNCaP xenografts = assay: LNCaP xenograft in SCID mice, Q6DX2, equitoxic comparison (Example 27); assay type: in vivo, C.B-17.SCID mice
# Experimental: All compounds except Suc-βAla-Leu-Ala-Leu-Dox (three levels) were dosed at two levels with the goal to get a dose response for all compounds.
# Knowing that the LNCaP tumor bearing nude mice have weight loss, we chose very conservative dose levels for each compound estimated to be well-tolerated equitoxic doses based on earlier studies and SD-MTD results. The high dose level for repeat dosing is usually 80% of their SD-MTD, and the low dose level is 80% of the high dose level. Accordingly, groups of ten male CD17.SCID mice, subcutaneously injected with 2.5 million LNCaP cells, were treated intravenously with the compounds at the levels described in Table 22 at six day intervals for a total of two identical doses (Q6DX2).
# LNCaP tumors grew well in SCID mice, but the SCID mice with LNCaP tumor xenografts experienced severe weight loss, as 80% of control mice had more than 25% of weight loss by the end of the study. Nevertheless, the efficacy of different treatments at approximately equitoxic levels were compared based on the time it took for 50% of mice to reach toxic weight loss and the total numbers of mice with toxic weight loss at the end of study.
# [2] = test system: LNCaP (prostate carcinoma) cells
# Experimental: (§3) Adherent cells, LNCaP (prostate carcinoma), HT-29 (colon carcinoma) and PC-3 (prostate carcinoma), were cultured in DMEM media containing 10% heat inactivated fetal calf serum (FCS). On the day of the study the cells were detached from the plate with a trypsin solution. The collected cells were washed and resuspended at a concentration of 0.25×10^6 cells/ml in DMEM containing 10% FCS. 100 μl of cell suspension were added to 96 well plates and the plates were incubated for 3 hours to allow the cells to adhere. […] The plates were then incubated for 24 hours, pulsed with 10 μl of a 100 μCi/ml ^3H-thymidine and incubated for an additional 24 hours (total incubation time 48 hours). The plates were harvested using a 96 well Harvester (Packard Instruments) and counted on a Packard Top Count Counter. Four parameter logistic curves were fitted to the ^3H-thymidine incorporation as a function of drug molarity using Prism software to determine IC50 values.
# as §3, with “carcinoma), PC-3 (prostate” for “carcinoma), HT-29 (colon”, “and 22 RV1” for “and PC-3”, “with 1:0” for “with 10”
# as §2
# [3] = test system: LNCaP prostate carcinoma xenograft; assay: LNCaP prostate carcinoma xenograft in nude mice, Q7D × 3 (Examples 30, 31); conditions: for Toxic Endpoint: >20% body weight loss; for Cancer Endpoint: tumors reaching 1000 mg
# Experimental: In this model, 7.5 million LNCaP cells resuspended in 0.1 ml of phosphate buffered saline and 0.1 ml of Matrigel (Becton Dickinson) were injected into the side of male nude mice fed on high fat diet.
smiles,measurement,setting,value
CC[C@H](C)[C@H](NC(=O)CCC(=O)O)C(=O)N[C@@H](C)C(=O)N[C@@H](CC(C)C)C(=O)N[C@H]1C[C@H](O[C@H]2C[C@](O)(C(=O)CO)Cc3c(O)c4c(c(O)c32)C(=O)c2c(OC)cccc2C4=O)O[C@@H](C)[C@H]1O [Suc-Ile-Ala-Leu-Dox],pIC50,Namalwa cells (CD10pos),5.19
same,Ratio Ball-1:Namalwa,Namalwa cells (CD10pos),4
same,pIC50,"BALL-1 cells (CD10neg); read-out: IC50 Ball-1, 24 hours",4.59
same,Ratio Ball-1:Ramos,Ramos cells (CD10pos),4
same,pIC50,"Ramos cells (CD10pos); read-out: IC50 Ramos, 24 hours",5.19
same,Major Plasma Metabolite,[1],Leu-Dox
same,Plasma AUC0-6 hr of AL-Dox or AG-Dox*,[1],1.0 µM·h
same,Plasma AUC0-6 hr of L-Dox or G-Dox*,[1],6.2 µM·h
same,Plasma AUC0-6 hr of Dox,[1],0.9 µM·h
same,% hydrolysis/10 hr,Porcine Kidney CD10,12.5 % hydrolysis/10 hr
same,Fraction hydrolyzed relative to standard,Porcine Kidney CD10,1.1
same,Time: 50% Weight Loss,LNCaP xenografts; 75 mg/kg Q6DX2,26 days
same,Time: 100% Weight Loss,LNCaP xenografts; 75 mg/kg Q6DX2,43 days
same,Time: 50% Weight Loss,LNCaP xenografts; 94 mg/kg Q6DX2,19 days
same,Time: 100% Weight Loss,LNCaP xenografts; 94 mg/kg Q6DX2,36 days
same,Ratio PC-3:LNCaP,[2]; ratio of IC50,83
same,pIC50,"[2]; read-out: IC50 LNCAP, 48 hours total incubation",5.96
"COc1cccc2c1C(=O)c1c(O)c3c(c(O)c1C2=O)C[C@@](O)(C(=O)CO)C[C@@H]3O[C@H]1C[C@H](N)[C@H](O)[C@H](C)O1 [Doxorubicin, reference compound]",TGI D22,[3]; 4 mg/kg Q7D × 3,52.2 ± 28.8%
same,Tumor Weight (mg) D22,[3]; 4 mg/kg Q7D × 3,323.8 ± 60.8 mg
same,loss of group mean adjusted body weight,"[3]; 4 mg/kg Q7D × 3, Day 22",about 7%
same,Survivor D36,"[3]; 4 mg/kg Q7D × 3, N 8",D36: 3
same,Toxic Endpoint,[3]; 4 mg/kg Q7D × 3,1
same,Cancer Endpoint,[3]; 4 mg/kg Q7D × 3,4
same,pIC50,Namalwa cells (CD10pos),8.00
same,pIC50,"BALL-1 cells (CD10neg); Homo sapiens, BALL-1, 24 h, read-out: IC50 Ball-1",7.70
same,pIC50,"Ramos cells (CD10pos); Homo sapiens, Ramos, 24 h, read-out: IC50 Ramos",8.00
same,pIC50,"Ramos cells (CD10pos); Homo sapiens, Ramos, read-out: IC50 Ramos",8.00
same,% Weight Loss at the end of study,LNCaP xenografts; 3 mg/kg Q6DX2,60%
same,Growth Inhibition,LNCaP xenografts; 3 mg/kg Q6DX2,29%
same,Time: 50% Weight Loss,LNCaP xenografts; 3 mg/kg Q6DX2,36 days
same,Growth Inhibition,LNCaP xenografts; 4 mg/kg Q6DX2,29%
same,% Weight Loss at the end of study,"LNCaP xenografts; 4 mg/kg Q6DX2, mice with toxic weight loss",80%
same,Time: 50% Weight Loss,"LNCaP xenografts; 4 mg/kg Q6DX2, time for 50% of mice to reach toxic weight loss",33 days
CC[C@H](C)[C@H](NC(=O)CCNC(=O)CCC(=O)O)C(=O)N[C@@H](C)C(=O)N[C@@H](CC(C)C)C(=O)N[C@H]1C[C@H](O[C@H]2C[C@](O)(C(=O)CO)Cc3c(O)c4c(c(O)c32)C(=O)c2c(OC)cccc2C4=O)O[C@@H](C)[C@H]1O [Suc-βAla-Ile-Ala-Leu-Dox],Tumor Weight (mg) D22,[3]; 40 mg/kg (22 Dox equi) Q7D × 3,D22: 152.1 ± 19.3 mg
same,TGI D22,"[3]; 40 mg/kg (22 Dox equi) Q7D × 3, listed as Suc-bAla-Ile-Ala-Leu-Dox",77.5 ± 27.5%
same,Survivor D36,"[3]; 40 mg/kg Q7D × 3, N 8",D36: 8**
same,Toxic Endpoint,[3]; 40 mg/kg Q7D × 3,0
same,Cancer Endpoint,[3]; 40 mg/kg Q7D × 3,0
same,Ratio Ball-1:Namalwa,Namalwa cells (CD10pos),172
same,pIC50,BALL-1 cells (CD10neg); 24 h,4.30
same,pIC50,Ramos cells (CD10pos); 24 h,6.38
same,Ratio Ball-1:Ramos,Ramos cells (CD10pos),120
same,Major Plasma Metabolite,[1],Leu-Dox
same,Plasma AUC0-6 hr of AL-Dox or AG-Dox*,[1],0.5 µM·h
same,Plasma AUC0-6 hr of L-Dox or G-Dox*,[1],8.5 µM·h
same,Plasma AUC0-6 hr of Dox,[1],1.5 µM·h
same,% hydrolysis/10 hr,Porcine Kidney CD10,22.1 % hydrolysis/10 hr
same,Fraction hydrolyzed relative to standard,Porcine Kidney CD10,2.0
same,% Weight Loss at the end of study,LNCaP xenografts; 50 mg/kg Q6DX2,80%
same,Time: 50% Weight Loss,LNCaP xenografts; 50 mg/kg Q6DX2,33 days
same,Time: 50% Weight Loss,LNCaP xenografts; 62 mg/kg Q6DX2,12 days
same,Time: 100% Weight Loss,LNCaP xenografts; 62 mg/kg Q6DX2,33 days
same,pIC50,[2]; 48 h,6.82
same,Ratio Suc-β-Ala-Ile-Ala-Leu/Dox,"[2]; LnCap, ratio of IC50",3
same,Ratio PC-3:LNCaP,[2]; ratio of IC50,300
COc1cccc2c1C(=O)c1c(O)c3c(c(O)c1C2=O)C[C@@](O)(C(=O)CO)C[C@@H]3O[C@H]1C[C@H](NC(=O)[C@H](CC(C)C)NC(=O)[C@H](C)NC(=O)[C@H](CC(C)C)NC(=O)CCNC(=O)CCC(=O)O)[C@H](O)[C@H](C)O1 [Suc-βAla-Leu-Ala-Leu-Dox],TGI D22,[3]; 32 mg/kg (18 Dox equi) Q7D × 3,82.8 ± 27.7%
same,Tumor Weight (mg) D22,[3]; 32 mg/kg (18 Dox equi) Q7D × 3,116.3 ± 30.2 mg
same,Survivor D36,"[3]; 32 mg/kg Q7D × 3, N 8",8**
same,Toxic Endpoint,[3]; 32 mg/kg Q7D × 3,0
same,Cancer Endpoint,[3]; 32 mg/kg Q7D × 3,0
same,Toxic Endpoint,[3]; 40 mg/kg Q7D × 3,0
same,Cancer Endpoint,[3]; 40 mg/kg Q7D × 3,0
same,TGI D22,[3]; 50 mg/kg (28 Dox equi) Q7D × 3,78.8 ± 27.5%
same,Tumor Weight (mg) D22,[3]; 50 mg/kg (28 Dox equi) Q7D × 3,143.4 ± 19.0 mg
same,Survivor D36,"[3]; 50 mg/kg Q7D × 3, N 8",8**
same,Toxic Endpoint,[3]; 50 mg/kg Q7D × 3,0
same,Cancer Endpoint,[3]; 50 mg/kg Q7D × 3,0
same,maximal loss of group mean adjusted body weight,"[3]; all three doses (32, 40, 50 mg/kg) Q7D × 3, to Day 36",≤ 3%
same,Ratio Ball-1:Namalwa,Namalwa cells (CD10pos),3
same,pIC50,BALL-1 cells (CD10neg); 24 h,4.77
same,pIC50,Ramos cells (CD10pos),6.08
same,pIC50,Ramos cells (CD10pos); 24 h,5.16
same,Ratio Ball-1:Ramos,Ramos cells (CD10pos),2
same,Major Plasma Metabolite,[1],Ala-Leu-Dox
same,% hydrolysis/10 hr,Porcine Kidney CD10,10.9 % hydrolysis/10 hr
same,Fraction hydrolyzed relative to standard,Porcine Kidney CD10,1.0
same,Time: 50% Weight Loss,LNCaP xenografts; 40 mg/kg Q6DX2,33 days
same,Time: 100% Weight Loss,LNCaP xenografts; 40 mg/kg Q6DX2,54 days
same,Time: 50% Weight Loss,LNCaP xenografts; 50 mg/kg Q6DX2,19 days
same,Time: 100% Weight Loss,LNCaP xenografts; 50 mg/kg Q6DX2,40 days
same,Time: 50% Weight Loss,LNCaP xenografts; 62 mg/kg Q6DX2,15 days
same,Time: 100% Weight Loss,LNCaP xenografts; 62 mg/kg Q6DX2,33 days
same,pIC50,[2],6.29
same,pIC50,[2]; 48 h,6.06
same,shift of IC50,[2]; LNCaP cells treated with 100 nM of phosphoramidon (data not shown),7 fold
same,Ratio PC-3:LNCaP,[2]; ratio of IC50,32
